Data from patent publication US20040259806A1 (priority 2001, published 2004).

Experiments:
[1] = tested on: M. bovis 8; format: in vivo, mice
[2] = tested on: spleen cells; test: Spleen cell proliferation (Con A, LPS, tuberculin) from treated infected mice; format: in vivo; settings: after 24 days; Group 3 the isoniazid control group
Procedure: Spleens from mice were harvested aseptically, homogenized in RPMI-1640 medium (Biolot, Russia) and filtered through two layers of sterile gauze. Erythrocytes were lysed in 0.83% percent ammonium chloride solution after centrifugation of the homogenate. Spleen cells were washed twice with RPMI-1640 with 2 mM L-glutamine and […] gentamycin (Sigma, St. Louis, Mo.), then counted using a Goriaev hemocytometer.
Spleen cells and thymic cells were isolated as described above. In vitro, thymic cells were diluted to 10^7/ml in RPMI-1640 with 2 mM L-glutamine, 80 ìg/ml gentamycin and 4% heat-inactivated fetal calf serum (Sigma, St. Louis, Mo.). Spleen cells were diluted to 3×10^6/ml in RPMI-1640 with 2 mM L-glutamine, 80 ìg/ml gentamycin and 20% inactivated fetal calf serum. 0.5 ìg/ml Concanavalin A (Con A, Sigma, St. Louis, Mo.) was used to stimulate thymic cell proliferation. For spleen cell proliferation, 0.5 ìg/ml Con A, 10 ìg/ml lipopolysaccharide (Sigma, St. Louis, Mo.), and 50 ìg/ml tuberculin purified protein derivative (PPD) were utilized. The assay was carried out in 96-well plates and cell cultures were incubated for 72 hours, or 96 hours if tuberculin was used, at 37° C. in humidified 5% CO2, then pulsed with 5 ìl Ci/ml ^3H-thymidine overnight (approximately 16 h) and harvested on filters using a semi-automated harvester (Titertek™, Flow Laboratories, Norway). Filters were dried and proliferation calculated by ^3H-thymidine incorporation by counting samples in a liquid scintillation counter (LKB 1217 Racketa, Wallace, Sweden). Data was expressed in impulses per minute.

[3] = tested on: peritoneal macrophages; test: Phagocytosis and killing of Saccharomyces cerevisiae by peritoneal macrophages of treated infected mice; format: in vivo
Procedure: In order to study phagocytosis, peritoneal macrophages were plated at a concentration of 10^6 cells per Petri dish and media including 10^7 Saccharomyces cerevisiae cells, opsonized by mice serum was added. Results were evaluated using the Mann-Whitney test. Phagocytic activity was calculated after determination of percentage of macrophages involved in phagocytes. The phagocytic index was determined by calculating the average number of yeast phagocytosed per one cell. Killing activity was resolved by the number of yeast digested by macrophages after 1.5 h of incubation. Finally, the killing index was determined as follows: [formula]

[4] = tested on: IL-2; test: IL-2 production by Con A stimulated spleen cells (CTLL-2 assay); format: in vivo, mice; settings: 4 days after therapy; Group 7 (0.1 ìg/kg ip) compared to Group 3 (isoniazid control); Con A stimulated spleen cells
Procedure: In RPMI-1640, spleen cells were diluted to a concentration of 10^7/ml with 10% fetal calf serum, 2 mM L-glutamine and 80 ìg/ml gentamycin. A 100 ìl cell suspension was added to each well of a 96-well culture plate and cytokine production was induced by Con A at a final concentration of 2.5 ìg/ml. A control well included RPMI-1640. For 24 hours, cells were incubated at 37° C. and humidified in 5% CO2. Following incubation, […] of supernatant was removed from each well and stored at −70° C.
In order to determine the IL-2 concentration in cell culture supernatants, the CTLL-2 IL-2 dependent cell line was used. CTLL-IL-2 cells were washed twice in RPMI-1640 and counted with a Goriaev hemocytometer. Supernatants were diluted in 96-well culture plates at dilutions of 1:5, 1:15, 1:45 and 1:135 in a volume of 100 il. IL-2 standard dilutions were also prepared. Cells were diluted to 2×10^5/ml in RPMI-1640 with 10% inactivated fetal calf serum, 2 mM L-glutamine, 80 ìg/ml gentamycin. The 100 ìl suspension was added to each well of the culture plate and incubated for 48 h at 37° C. in 5% CO2 humidity. Ten ìl of 5 i Ci/ml ^3H-thymidine was added to each well 16 h before the end of incubation. Following incubation, the cells were harvested on filters through the use of a semi-automated harvester and samples were counted in a liquid scintillation counter.

[5] = 24 days after end of therapy, Group 7 (0.1 ìg/kg ip) versus Group 3 (isoniazid control)

NNC(=O)c1ccncc1 [isoniazid, isonicotinic acid hydrazide, reference compound]
growth of M bovis cultured from spleens [1, 5]: 275±14.1 CFU | lung weight index [1, 5]: 1.07±0.23 | spleen weight index [1, 5]: 1.94±0.31 | increase in body weight ([1]; 24 days after end of therapy, Group 7 (SCV-07 0.1 ìg/kg ip, 5 injections, with isoniazid) versus Group 3 (isoniazid control)): 20.7% | lung damage index, difference to untreated mice (Group 2) ([1]; isoniazid alone (Group 3), 10 mg/kg subcutaneous, Day 28 of infection): no significant difference | spleen cell proliferative response (Con A and LPS) [2]: remained low | phagocytic killing ([3]; 24 days after treatment, Group 3 (isoniazid), 178.0 in uninfected mice, p=0.05): 62.0 U | Phagocytosis ([3]; 24 days after treatment, isoniazid treatment group): returned to the level seen in uninfected mice | phagocytic activity ([3]; after 4 days, Group 7 (SCV-07 0.1 ìg/kg ip) compared to Group 3 (isoniazid control), p≦0.05, 64.2% in uninfected mice): 19.4% | killing ([3]; after 4 days, SCV-07 versus control, p≦0.05): 196.4 | phagocytic activity ([3]; after 17 days, Group 6 (1.0 ìg/kg ip, 10 injections) versus Group 3 (isoniazid control)): 49.8% | phagocytic index ([3]; after 17 days, Group 6 (1.0 ìg/kg ip, 10 injections) versus Group 3, p=0.05): 4.91 U | IL-2 production [4]: 16.6±2.6 U/ml
